A short description of series [1]: Body weight gain with daily or twice-weekly intragastric injection (Example 4). Format: in vivo, rat. To be noted: low doses by the intragastric route, 28 days. From the text: (§1) Each of the rats was assigned to one of five groups. […] These groups were compared to the group with daily injection of vehicle (n=8).
The conditions of series [2]: determined from behavioral tests; cited from earlier work.
For series [3] the following is noted: animal model of temporal lobe epilepsy; cited from earlier work.
For series [4] the following is noted: cited from earlier work.
The conditions of series [5]: mice; cited from earlier work.
For series [6] the following is noted: 5 and 20 mg doses; human trials; cited from earlier work.
A short description of series [7]: Two-flavored conditioned aversion test (Example 4). To be noted: for short-term percentage preference for the primary flavor associated with drug delivery: 15 min; for percentage daily preference for the flavor associated with drug delivery: 17 hr. In kind it is in vivo, rat.
Text: Another objective was to determine whether the animals were responding negatively to the drug as determined by the use of a two-flavored conditioned aversion test in which the drug was repeatedly paired with one flavor of liquid diet while the vehicle injection was paired with the other flavor. There were ten training trials before the test procedure was done so the rats had sufficient time to make associations between flavors and internal consequences. This test procedure involved giving the rats two bottles, containing the liquid diets flavored with chocolate and strawberry, and determining the individual rat's preference for one or the other of the flavors. A conditioned aversion was established if the rat chose against the flavor associated with the drug injections.
as §1
This conditioning procedure was done for 10 exposures before the actual conditioned aversion test was done on day 33. This aversion test was done by allowing each rat exposure for 17 hrs to two bottles, one containing chocolate-flavored and the other containing strawberry-flavored liquid diet. No drugs or vehicles were injected on this day. […] Moreover, the rats were forced to taste both flavors for three or four licks before the diets were made freely available to them so the rats were fully aware that two flavors were present. […] The 17-hour tests allowed repeated association between the internal consequences of the drug and the taste of the drug associated primary flavor.

A further series deals with CB1 (Homo sapiens, UniProt P21554). To be noted: cited from earlier work.
Sequence of CB1 (P21554 whole entry, species assumed): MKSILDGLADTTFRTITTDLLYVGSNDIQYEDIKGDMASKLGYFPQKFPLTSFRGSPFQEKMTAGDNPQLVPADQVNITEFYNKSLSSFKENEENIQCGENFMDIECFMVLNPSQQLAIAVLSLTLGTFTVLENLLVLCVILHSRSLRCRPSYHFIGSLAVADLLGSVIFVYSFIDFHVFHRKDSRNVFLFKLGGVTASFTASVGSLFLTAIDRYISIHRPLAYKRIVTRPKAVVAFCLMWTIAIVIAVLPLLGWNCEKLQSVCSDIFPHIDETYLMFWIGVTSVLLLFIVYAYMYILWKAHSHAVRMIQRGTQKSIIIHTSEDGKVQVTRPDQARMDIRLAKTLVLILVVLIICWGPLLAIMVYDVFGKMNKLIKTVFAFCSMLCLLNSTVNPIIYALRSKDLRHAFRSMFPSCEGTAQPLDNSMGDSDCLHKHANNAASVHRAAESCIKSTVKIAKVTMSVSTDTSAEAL
The conditions of series [8]: cited from earlier work. This is another data set of the same source.
Series [9] in a line: Food intake after a single intraperitoneal injection in prefed, moderately obese male Lewis rats (Example 1). As to conditions: for cumulative food intake: AM-251 5 mg/kg i.p., Ensure Plus.
Description: Vanilla-flavoured Ensure Plus (Ross Laboratories, Saint-Laurent, Quebec, Canada) was used as food on account of its palatability, and to reduce the risk of spillage. […] Food and water were presented in inverted glass bottles that attached to the outside of the cage. Animals were habituated to handling and testing procedures 3 weeks prior to testing on liquid diet.
The initial food presented between 1600 and 1700 h (prefeed) was designed to produce partial satiety as previously described in C.
Food bottles were put back on at 1800 h. Food intake measurements were taken daily as well as at 1900, 2000, and 2100 h.
Series [10] can be described thus: Weight gain or loss after a single dose of 1.25 or 2.5 mg/kg (Example 2). Format: in vivo, rat. To be noted: for weight gain or loss: over 10 days. As to the method:
(§2) Food intake and weight measurements were taken daily. […] Animals were assigned into vehicle, 1.25 or 2.5 mg/kg conditions via a counterbalance design.

Series [11] can be described thus: Daily food intake with administration every 5 days (Example 3). As to conditions: 5 mg/kg every 5 days.
Description: (§3) Food was available for 17 h each day starting at 16:00 h. Food and water were presented in inverted glass bottles that were attached to the outside of the cage in order to minimize spillage. […] Food intake and body weight measurements were recorded daily.
Series [12] can be described thus: Daily food intake after a single dose of 1.25 or 2.5 mg/kg (Example 2). In kind it is in vivo, rat. As to the method: as §2
Series [13] can be described thus: Body weight change with administration every 5 days (Example 3). As to conditions: 5 mg/kg every 5 days, p<0.05.
Description: as §3
The mark [14] stands for this setting: rats injected daily (intragastric).

Like-named read-outs stand apart in the source and are kept apart here.

Consider `Cc1c(C(=O)NN2CCCCC2)nn(-c2ccc(Cl)cc2Cl)c1-c1ccc(Cl)cc1` [rimonabant, N-(piperidin-1-yl)-5-(4-chlorophenyl)-1-(2,4-dichlorophenyl)-4-methyl-1H-pyrazole-3-carboxamide], for which the “effect on body weight gain” value in series [1] is “significant slowing in weight gain”. Also, in [2], the predicted half-life is 22 h. Further, in series [3], the “frequency of protracted seizures” value is listed as “significantly higher frequency of protracted seizures”. Besides, in series [4] (approximately 10 mg/kg daily), the “effect of stopping daily doses” value was “significant rebound hyperphagia and a rapid return in body weight”. Further, the “time of treatment after which the anorectic effect waned” value in series [4] (continued treatment, rats) is on record as 5 days. In addition, the “damage in response to an inflammatory stimulus vs vehicle-treated controls” value in series [5] is “significantly more damage”. Besides, in [6], the “most common side effects” value was “nausea, dizziness, arthralgia and diarrhea”. The “short-term percentage preference for the primary flavor associated with drug delivery” value in series [7] (setting [14]) is 48%; in series [7] (rats injected twice-weekly (intragastric)), 44%. The “percentage daily preference for the flavor associated with drug delivery” value in [7] (rats injected biweekly (intragastric)) is recorded as 50%; in series [7] (setting [14]), 67%.

In the case of `CN=C(NS(=O)(=O)c1ccc(Cl)cc1)N1C[C@H](c2ccccc2)C(c2ccc(Cl)cc2)=N1` [SLV-319], the “CB1 antagonist activity and selectivity” value on CB1 is recorded as “potent, CB1 selective antagonists”.

Consider `Cc1c(C(=O)NN2CCCCC2)nn(-c2ccc(Cl)cc2Cl)c1-c1ccc(I)cc1` [AM-251, N-(piperidin-1-yl)-5-(4-iodophenyl)-1-(2,4-dichlorophenyl)-4-methyl-1H-pyrazole-3-carboxamide], for which the “effect on body weight gain” value in [1] is “significant slowing in weight gain”. Also, in series [8] (3 mg/kg daily, mouse), the “time of repeated daily administration after which changes in food intake were non-significant” value was 8 days. Moreover, the “effect of stopping daily doses” value in series [8] (approximately 10 mg/kg daily) is “significant rebound hyperphagia and a rapid return in body weight”. For the same compound, the daily food intake in series [9] (5 mg/kg i.p., day of injection) came out at 36.7 ± 3.3 g; in series [9] (5 mg/kg i.p., last day of significant reduction (day before the next drugs were given)), 47.0 ± 2.5 g. In addition, the “duration of significant reduction in daily food intake” value in series [9] (5 mg/kg i.p., starting on the day of injection) came out at 6 days. In addition, the figures for the cumulative food intake entry in series [9] (1 h of testing), in series [9] (2 h of testing) and in [9] (3 h of testing) were “no intake”, 1.3 ± 0.8 g and 3.3 ± 1.4 g, respectively. Also, the “weight gain or loss” value in series [10] (1.25 mg/kg single dose) was 2.5 ± 2.0 g; in series [10] (2.5 mg/kg single dose) it was -5.1 ± 2.1 g. Also, the “duration of weight loss compared with duration of reduced food intake” value in [10] (lowest dose, 1.25 mg/kg) is listed as “the duration of weight loss exceeded the duration of reduced food intake”. Also, the “days on which food intake was significantly reduced” value in series [11] was “days 1-4, and days 6-15”. The “time that reductions in food intake continued after the last treatment” value in series [11] is on record as “five”. In addition, the “duration of significant reductions in food intake after the first dose” value in [11] (vs vehicle, p<0.05) is 4 days. In addition, the “reductions in food intake, dose relation” value in [12] (1.25 mg/kg or 2.5 mg/kg single dose) is “dose dependent”. The “duration of significant reductions in food intake after the day of administration” value in series [12] (2.5 mg/kg single dose, significant starting the day of administration, p<0.001) is reported as 4 days. The “period of significant differences in weight change vs vehicle” value in series [13] (Newman-Keuls multiple comparison test) is “day 1 to day 24”. Moreover, in series [13] (unpaired t-test, last administration on day 11), the “period of significant reductions in weight gain” value is given as “day 1 until day 27”.

Turning to `Cc1c(C(=O)NN2CCOCC2)nn(-c2ccc(Cl)cc2Cl)c1-c1ccc(I)cc1` [AM 281, N-(Morpholin-1-yl)-1-(2,4-dichlorophenyl)-5-(4-iodophenyl)-4-methyl-1H-pyrazole-3-carboxamide], the “CB1 antagonist activity and selectivity” value at CB1 is on record as “potent, CB1 selective antagonists”.

(Values after patent US20090170900A1, “DOSING REGIMEN FOR WEIGHT LOSS” (UTI LIMITED PARTNERSHIP, priority 2005, published 2009).)
